These results are taken from patent publication US20200369728A1, “PEPTIDOMIMETIC MACROCYCLES AND USES THEREOF” (Aileron Therapeutics, Inc., priority 2015, published 2020).

The test has as its system SJSA-1 cells. Kind of test: Cell lysis by peptidomimetic macrocycles (LDH release). Format: cell-based. The note with it: SJSA-1, 1 h. The protocol:
SJSA-1 cells were plated out one day in advance in clear flat-bottom plates (Costar, catalog number 353072) at 7500 cells/well with 100 ul/well of growth media, leaving row H columns 10-12 empty for media alone. On the day of the assay, media was exchanged with RPMI 1% FBS media, 90 uL of media per well.
10 mM stock solutions of the peptidomimetic macrocycles were prepared in 100% DMSO. Peptidomimetic macrocycles were then diluted serially in 100% DMSO, and then further diluted 20-fold in sterile water to prepare working stock solutions in 5% DMSO/water of each peptidomimetic macrocycle at concentrations ranging from 500 μM to 62.5 μM.
10 μL of each compound was added to the 90 uL of SJSA-1 cells to yield final concentrations of 50 μM to 6.25 μM in 0.5% DMSO-containing media. The negative control (non-lytic) sample was 0.5% DMSO alone and positive control (lytic) samples include 10 μM Melittin and 1% Triton X-100.
Cell plates were incubated for 1 hour at 37° C. After the 1 hour incubation, the morphology of the cells is examined by microscope and then the plates were centrifuged at 1200 rpm for 5 minutes at room temperature. 40 μL of supernatant for each peptidomimetic macrocycle and control sample is transferred to clear assay plates. LDH release is measured using the LDH cytotoxicity assay kit from Caymen, catalog #1000882.
A general note: Release of lactate dehydrogenase indicates damage to the cell membrane.

Bridge positions count the residues as written; N and C are the ends. Square brackets hold non-standard residues; d marks the D form. Peptide text beside a SMILES is read from it. R8 = C=CCCCCCC[C@@](C)(N)C(=O)O; Cha = N[C@@H](CC1CCCCC1)C(=O)O; Chg = N[C@H](C(=O)O)C1CCCCC1; hLeu = CC(C)CC[C@H](N)C(=O)O; S5 = C=CCCC[C@](C)(N)C(=O)O; Nle = CCCC[C@H](N)C(=O)O; Ac3c = NC1(C(=O)O)CC1; Aib = CC(C)(N)C(=O)O

`CCCC[C@H](NC(=O)[C@H](C)NC(=O)[C@H](CO)NC(=O)[C@]1(C)CCCC=CCCCCCC[C@@](C)(NC(=O)[C@H](Cc2ccccc2)NC(=O)[C@@H](NC(=O)[C@H](CC(C)C)NC(C)=O)[C@@H](C)O)C(=O)N[C@@H](C)C(=O)N[C@@H](Cc2ccc(O)cc2)C(=O)N[C@@H](Cc2c[nH]c3ccccc23)C(=O)N[C@@H](C)C(=O)N[C@@H](CCC(N)=O)C(=O)N[C@@H](CC(C)C)C(=O)N1)C(N)=O` [compound 3] (Ac-LTF[R8]AYWAQL[S5]SA[Nle]-NH2; staple 4-11): the “6.25 μM % Lysed cells (1 h LDH)” value is on record as 1%, the “25 μM % Lysed cells (1 h LDH)” value is recorded as 1% and the “50 μM % Lysed cells (1 h LDH)” value worked out at 3%.
For `CC(=O)N[C@@H](CC(C)C)C(=O)N[C@H](C(=O)N[C@@H](Cc1ccccc1)C(=O)N[C@]1(C)CCCCCCC=CCCC[C@@](C)(C(=O)N[C@@H](CO)C(=O)N[C@@H](C)C(=O)N[C@@H](CCC(C)C)C(N)=O)NC(=O)[C@H](CC(C)C)NC(=O)[C@H](CCC(N)=O)NC(=O)[C@H](C)NC(=O)[C@H](Cc2c[nH]c3ccccc23)NC(=O)[C@H](Cc2ccc(O)cc2)NC(=O)[C@H](C)NC1=O)[C@@H](C)O` [compound 6] (Ac-LTF[R8]AYWAQL[S5]SA[hLeu]-NH2; staple 4-11), the “6.25 μM % Lysed cells (1 h LDH)” value was found to be 1%, the “25 μM % Lysed cells (1 h LDH)” value is 1% and the “50 μM % Lysed cells (1 h LDH)” value was determined as 1%.
In the case of `CC(=O)N[C@@H](CC(C)C)C(=O)N[C@H](C(=O)N[C@@H](Cc1ccccc1)C(=O)N[C@]1(C)CCCCCCC=CCCC[C@@](C)(C(=O)N[C@@H](CO)C(=O)N[C@@H](C)C(=O)N[C@H](C(N)=O)C2CCCCC2)NC(=O)[C@H](CC(C)C)NC(=O)[C@H](CCC(N)=O)NC(=O)[C@H](C)NC(=O)[C@H](Cc2c[nH]c3ccccc23)NC(=O)[C@H](Cc2ccc(O)cc2)NC(=O)[C@H](C)NC1=O)[C@@H](C)O` [compound 9] (Ac-LTF[R8]AYWAQL[S5]SA[Chg]-NH2; staple 4-11), the “6.25 μM % Lysed cells (1 h LDH)” value was −3%, the “25 μM % Lysed cells (1 h LDH)” value is 0% and the “50 μM % Lysed cells (1 h LDH)” value is 2%.
For `CC(=O)N[C@@H](Cc1ccccc1)C(=O)N[C@]1(C)CCCCCCC=CCCC[C@@](C)(C(=O)N[C@@H](C)C(=O)N[C@@H](C)C(=O)N[C@@H](CC(C)C)C(N)=O)NC(=O)[C@H](CC(C)C)NC(=O)C2(CC2)NC(=O)[C@H](CCC(=O)O)NC(=O)[C@H](Cc2c[nH]c3ccccc23)NC(=O)[C@H](Cc2ccc(O)cc2)NC(=O)[C@H](C)NC1=O` [compound 15] (Ac-F[R8]AYWE[Ac3c]L[S5]AAL-NH2; staple 2-9), the “6.25 μM % Lysed cells (1 h LDH)” value was determined as 1%, the “25 μM % Lysed cells (1 h LDH)” value was 2% and the “50 μM % Lysed cells (1 h LDH)” value is reported as 5%.
Turning to `CC(=O)N[C@@H](Cc1ccccc1)C(=O)N[C@]1(C)CCCCCCC=CCCC[C@@](C)(C(=O)N[C@@H](C)C(=O)N[C@@H](C)C(=O)N[C@@H](Cc2ccccc2)C(N)=O)NC(=O)[C@H](CC(C)C)NC(=O)C2(CC2)NC(=O)[C@H](CCC(=O)O)NC(=O)[C@H](Cc2c[nH]c3ccccc23)NC(=O)[C@H](Cc2ccc(O)cc2)NC(=O)[C@H](C)NC1=O` [compound 18] (Ac-F[R8]AYWE[Ac3c]L[S5]AAF-NH2; staple 2-9), the “6.25 μM % Lysed cells (1 h LDH)” value came to 0%, the “25 μM % Lysed cells (1 h LDH)” value worked out at 2% and the “50 μM % Lysed cells (1 h LDH)” value amounted to 4%.
As to `CC[C@H](C)[C@H](NC(=O)[C@H](C)NC(=O)[C@H](C)NC(=O)[C@]1(C)CCCC=CCCCCCC[C@@](C)(NC(=O)[C@H](Cc2ccccc2)NC(C)=O)C(=O)N[C@@H](C)C(=O)N[C@@H](Cc2ccc(O)cc2)C(=O)N[C@@H](Cc2c[nH]c3ccccc23)C(=O)N[C@@H](CCC(=O)O)C(=O)NC2(CC2)C(=O)N[C@@H](CC(C)C)C(=O)N1)C(N)=O` [compound 19] (Ac-F[R8]AYWE[Ac3c]L[S5]AAI-NH2; staple 2-9), the “6.25 μM % Lysed cells (1 h LDH)” value is recorded as 2%, the “25 μM % Lysed cells (1 h LDH)” value is 3% and the “50 μM % Lysed cells (1 h LDH)” value is reported as 21%.
As for `CC(=O)N[C@@H](Cc1ccccc1)C(=O)N[C@]1(C)CCCCCCC=CCCC[C@@](C)(C(=O)N[C@@H](C)C(=O)N[C@@H](C)C(=O)NC(C)(C)C(N)=O)NC(=O)[C@H](CC(C)C)NC(=O)C2(CC2)NC(=O)[C@H](CCC(=O)O)NC(=O)[C@H](Cc2c[nH]c3ccccc23)NC(=O)[C@H](Cc2ccc(O)cc2)NC(=O)[C@H](C)NC1=O` [compound 22] (Ac-F[R8]AYWE[Ac3c]L[S5]AA[Aib]-NH2; staple 2-9), the “6.25 μM % Lysed cells (1 h LDH)” value worked out at 0%, the “25 μM % Lysed cells (1 h LDH)” value is 0% and the “50 μM % Lysed cells (1 h LDH)” value was determined as 0%.
With `CC(=O)N[C@@H](Cc1c[nH]cn1)C(=O)N[C@@H](CC(C)C)C(=O)N[C@H](C(=O)N[C@@H](Cc1ccccc1)C(=O)N[C@]1(C)CCCCCCC=CCCC[C@@](C)(C(=O)N[C@@H](C)C(=O)N[C@@H](C)C(=O)N[C@@H](CCC(C)C)C(=O)N[C@@H](C)C(N)=O)NC(=O)[C@H](CC(C)C)NC(=O)[C@H](CCC(N)=O)NC(=O)[C@H](Cc2c[nH]cn2)NC(=O)[C@H](Cc2c[nH]c3ccccc23)NC(=O)[C@H](Cc2c[nH]cn2)NC(=O)[C@H](Cc2c[nH]cn2)NC1=O)[C@@H](C)O` [compound 32] (Ac-HLTF[R8]HHWHQL[S5]AA[hLeu]A-NH2; staple 5-12), the “6.25 μM % Lysed cells (1 h LDH)” value worked out at 0%, the “25 μM % Lysed cells (1 h LDH)” value was determined as 2% and the “50 μM % Lysed cells (1 h LDH)” value came to 0%.
As for `CCCC[C@H](NC(=O)[C@H](C)NC(=O)[C@H](CCC(N)=O)NC(=O)[C@H](Cc1c[nH]cn1)NC(=O)[C@]1(C)CCCC=CCCCCCC[C@@](C)(NC(=O)[C@H](Cc2ccccc2)NC(C)=O)C(=O)N[C@@H](C)C(=O)N[C@@H](Cc2ccc(O)cc2)C(=O)N[C@@H](Cc2c[nH]c3ccccc23)C(=O)N[C@@H](CO)C(=O)N[C@@H](C)C(=O)N[C@@H](CC(C)C)C(=O)N1)C(N)=O` [compound 39] (Ac-F[R8]AYWSAL[S5]HQA[Nle]-NH2; staple 2-9), the “6.25 μM % Lysed cells (1 h LDH)” value was found to be 0%, the “25 μM % Lysed cells (1 h LDH)” value is given as 0% and the “50 μM % Lysed cells (1 h LDH)” value is 3%.
For the molecule `CC(=O)N[C@@H](Cc1ccccc1)C(=O)N[C@]1(C)CCCCCCC=CCCC[C@@](C)(C(=O)N[C@@H](Cc2c[nH]cn2)C(=O)N[C@@H](CCCNC(=N)N)C(=O)N[C@@H](Cc2ccccc2)C(=O)N[C@@H](CC2CCCCC2)C(N)=O)NC(=O)[C@H](CC(C)C)NC(=O)[C@H](CCC(N)=O)NC(=O)[C@H](Cc2c[nH]cn2)NC(=O)[C@H](Cc2c[nH]c3ccccc23)NC(=O)[C@H](Cc2c[nH]cn2)NC(=O)[C@H](Cc2c[nH]cn2)NC1=O` [compound 55] (Ac-F[R8]HHWHQL[S5]HRF[Cha]-NH2; staple 2-9), the “6.25 μM % Lysed cells (1 h LDH)” value came to 1%, the “25 μM % Lysed cells (1 h LDH)” value amounted to 9% and the “50 μM % Lysed cells (1 h LDH)” value was found to be 13%.
With `CC(=O)N[C@@H](CC(C)C)C(=O)N[C@H](C(=O)N[C@@H](Cc1ccccc1)C(=O)N[C@]1(C)CCCCCCC=CCCC[C@@](C)(C(=O)N[C@@H](C)C(=O)N[C@@H](Cc2c[nH]cn2)C(=O)N[C@@H](Cc2ccccc2)C(=O)N[C@@H](C)C(N)=O)NC(=O)[C@H](CC(C)C)NC(=O)[C@H](CCC(N)=O)NC(=O)[C@H](C(C)C)NC(=O)[C@H](Cc2c[nH]c3ccccc23)NC(=O)[C@H](Cc2c[nH]cn2)NC(=O)[C@H](C)NC1=O)[C@@H](C)O` [compound 190] (Ac-LTF[R8]AHWVQL[S5]AHFA-NH2; staple 4-11), the “6.25 μM % Lysed cells (1 h LDH)” value is recorded as −1%, the “25 μM % Lysed cells (1 h LDH)” value stood at 0% and the “50 μM % Lysed cells (1 h LDH)” value turned out to be 1%.
On the same counts, the results for `CC(=O)N[C@@H](CC(C)C)C(=O)N[C@H](C(=O)N[C@@H](Cc1ccccc1)C(=O)N[C@]1(C)CCCCCCC=CCCC[C@@](C)(C(=O)N[C@@H](C)C(=O)N[C@@H](C)C(=O)N[C@@H](Cc2c[nH]c3ccccc23)C(=O)N[C@H](C)C(N)=O)NC(=O)[C@H](CC(C)C)NC(=O)[C@H](CCC(N)=O)NC(=O)[C@H](C)NC(=O)[C@H](Cc2c[nH]c3ccccc23)NC(=O)[C@H](Cc2ccc(O)cc2)NC(=O)[C@H](C)NC1=O)[C@@H](C)O` [compound 211] (Ac-LTF[R8]AYWAQL[S5]AAW[dA]-NH2; staple 4-11) are 5%, 3% and 1%.
As for `CC(C)CC[C@@H]1NC(=O)[C@H](CCC(N)=O)NC(=O)[C@H](C)NC(=O)[C@H](Cc2c[nH]c3ccccc23)NC(=O)[C@H](Cc2ccc(O)cc2)NC(=O)[C@H](CCC(=O)O)NC(=O)[C@](C)(NC(=O)[C@H](Cc2ccccc2)NC(=O)[C@@H](NC(=O)[C@H](CC(C)C)NC(=O)CN(C)C)[C@@H](C)O)CCCCCCC=CCCC[C@@](C)(C(=O)N[C@@H](CO)C(=O)N[C@@H](C)C(=O)N[C@@H](C)C(N)=O)NC1=O` [compound 279], the “6.25 μM % Lysed cells (1 h LDH)” value is 6%, the “25 μM % Lysed cells (1 h LDH)” value is given as 5% and the “50 μM % Lysed cells (1 h LDH)” value is 6%.
`CCCCCC(=O)N[C@@H](CC(C)C)C(=O)N[C@H](C(=O)N[C@@H](Cc1ccccc1)C(=O)N[C@]1(C)CCCCCCC=CCCC[C@@](C)(C(=O)N[C@@H](CO)C(=O)N[C@@H](C)C(=O)N[C@@H](C)C(N)=O)NC(=O)[C@H](CCC(C)C)NC(=O)[C@H](CCC(N)=O)NC(=O)[C@H](C)NC(=O)[C@H](Cc2c[nH]c3ccccc23)NC(=O)[C@H](Cc2ccc(O)cc2)NC(=O)[C@H](CCC(=O)O)NC1=O)[C@@H](C)O` [compound 280]: the “6.25 μM % Lysed cells (1 h LDH)” value was 5%, the “25 μM % Lysed cells (1 h LDH)” value came to 6% and the “50 μM % Lysed cells (1 h LDH)” value turned out to be 18%.
